Values of other authors, collected in article PMC9528030 (ACS chemical biology, 2022).

Tested on: SARS-CoV-2
Settings: read-out: EC50 in a CPE assay; cited from earlier work

C[C@@H](OC(C)(C)C)[C@H](NC(=O)OCc1ccccc1)C(=O)N[C@@H](CC1CCCCC1)C(=O)N[C@H](C=O)C[C@@H]1CCNC1=O [MPI8]
EC50: 0.03 µM
